Values joined by “and” are separate entries in the source; they are usually repeats but may differ in a detail not shown here. Equal values may be shown once.
Legend:
Experiment in all cases: normalised viability (% of control), CellTiter-Blue; higher = more viable cells (about 100 = DMSO control)
Hs578T = details: incubation time: 72 h
In short: (§1)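 Compound dissolved in 5 µl medium was pre-loaded into 384-well plates, and breast cancer cell lines in 20 µl suspension were seeded on top and incubated 72 h. After adding 2.5 µl CellTiter-Blue reagent for 2 h at 37 °C, fluorescence was read at 560/590 nm. Plates were normalised to vehicle (100) and a positive kill control (0), with Z'-factor quality control. Each value is normalised viability at a single listed concentration from the series.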

HCC1143 [1] = details: incubation time: 72 h
In short: as §1

MDA-MB-468 = details: incubation time: 72 h
In short: as §1

CAL-51 [2] = details: incubation time: 72 h
In short: as §1

HCC1937 [3] = details: incubation time: 72 h
In short: as §1

SK-BR-3 [4] = details: incubation time: 72 h
In short: as §1

CAL-120 = details: incubation time: 72 h
In short: as §1

MDA-MB-231 [5] = details: incubation time: 72 h
In short: as §1

DU-4475 [6] = details: incubation time: 72 h
In short: as §1

CAL-85-1 [7] = details: incubation time: 72 h
In short: as §1

BT-474 = details: incubation time: 72 h
In short: as §1

MFM-223 [8] = details: incubation time: 72 h
In short: as §1

MDA-MB-436 = details: incubation time: 72 h
In short: as §1

BT-549 [9] = details: incubation time: 72 h
In short: as §1

HCC1599 [10] = details: incubation time: 72 h
In short: as §1

CAL-51 [11] = details: incubation time: 72 h; remark: listed apart in the source
Protocol: (§2)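 DSRT, CellTiter-Blue viability, 72 h incubation. Signal is normalised to DMSO and benzethonium chloride controls. Value is the normalised response at dose 7.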

DU-4475 [12] = details: incubation time: 72 h; remark: listed apart in the source
Protocol: as §2

CAL-85-1 [13] = details: incubation time: 72 h; remark: listed apart in the source
Protocol: as §2

CAL-148 [14] = details: incubation time: 72 h
Protocol: as §2

HDQ-P1 [15] = details: incubation time: 72 h
Protocol: as §2

MDA-MB-453 [16] = details: incubation time: 72 h
Protocol: as §2

HCC1143 [17] = details: incubation time: 72 h; remark: listed apart in the source
In short: as §1

CAL-51 [18] = details: incubation time: 72 h; remark: listed apart in the source
In short: as §1

HCC1937 [19] = details: incubation time: 72 h; remark: listed apart in the source
In short: as §1

SK-BR-3 [20] = details: incubation time: 72 h; remark: listed apart in the source
In short: as §1

MDA-MB-231 [21] = details: incubation time: 72 h; remark: listed apart in the source
In short: as §1

DU-4475 [22] = details: incubation time: 72 h; remark: listed apart in the source
In short: as §1

CAL-148 [23] = details: incubation time: 72 h; remark: listed apart in the source
In short: as §1

HDQ-P1 [24] = details: incubation time: 72 h; remark: listed apart in the source
In short: as §1

MFM-223 [25] = details: incubation time: 72 h; remark: listed apart in the source
In short: as §1

BT-549 [26] = details: incubation time: 72 h; remark: listed apart in the source
In short: as §1

HCC1599 [27] = details: incubation time: 72 h; remark: listed apart in the source
In short: as §1

MDA-MB-453 [28] = details: incubation time: 72 h; remark: listed apart in the source
In short: as §1

HDQ-P1 [29] = details: 10 nM; incubation time: 72 h
In short: as §1

With `Cc1ccc(NC(=O)c2ccc(CN3CCN(C)CC3)cc2)cc1Nc1nccc(-c2cccnc2)n1` [Imatinib] the normalised viability (Hs578T; 10000 nM) was 95.3% and 109%, the normalised viability (HCC1143 [1]; 10000 nM) was 86.7% and 88.8% and the normalised viability (MDA-MB-468; 10000 nM) was 103% and 99.3%. For the same molecule, the normalised viability (CAL-51 [2]; 100 nM) was 102% and 98.4%, the normalised viability (HCC1937 [3]; 10000 nM) was 88% and the normalised viability (SK-BR-3 [4]; 10000 nM) was 80.8% and 91.9%. The normalised viability (CAL-120; 10000 nM) was 114%, the normalised viability (MDA-MB-231 [5]; 10000 nM) was 107% and 104% and the normalised viability (DU-4475 [6]; 100 nM) was 89.4% and 111%. The normalised viability (CAL-85-1 [7]; 100 nM) was 90.9%, the normalised viability (BT-474; 10000 nM) was 104% and 96.8% and the normalised viability (MFM-223 [8]; 10000 nM) was 105% and 98%. The normalised viability (MDA-MB-436; 10000 nM) was 97.6% and 106%, the normalised viability (BT-549 [9]; 10000 nM) was 93% and 76.6% and the normalised viability (HCC1599 [10]; 10000 nM) was 97.8% and 103%. The normalised viability (CAL-51 [11]; 1000 nM) was 106% and 102%, the normalised viability (DU-4475 [12]; 1000 nM) was 115% and 108% and the normalised viability (CAL-85-1 [13]; 1000 nM) was 92.6% and 82.5%. The normalised viability (CAL-148 [14]; 1000 nM) was 82.7% and 100%, the normalised viability (HDQ-P1 [15]; 1000 nM) was 106% and 122% and the normalised viability (MDA-MB-453 [16]; 1000 nM) was 110% and 92.5%. The normalised viability (HCC1143 [17]; 10 nM) was 79% and 81.2%, the normalised viability (CAL-51 [18]; 3 nM) was 111% and 108% and the normalised viability (HCC1937 [19]; 10 nM) was 89.5% and 92.4%. For the same molecule, the normalised viability (SK-BR-3 [20]; 10 nM) was 97.5% and 99.9%, the normalised viability (MDA-MB-231 [21]; 10 nM) was 81% and 98.2% and the normalised viability (DU-4475 [22]; 3 nM) was 92.2% and 97.2%. For the same molecule, the normalised viability (CAL-148 [23]; 3 nM) was 80.4% and 92.6%, the normalised viability (HDQ-P1 [24]; 3 nM) was 132% and 110% and the normalised viability (MFM-223 [25]; 10 nM) was 95.9% and 112%. The normalised viability (BT-549 [26]; 10 nM) was 87.7% and 100%, the normalised viability (HCC1599 [27]; 10 nM) was 105% and 120% and the normalised viability (MDA-MB-453 [28]; 3 nM) was 129% and 110%.

`Cn1c(=O)n(-c2ccc(C(C)(C)C#N)cc2)c2c3cc(-c4cnc5ccccc5c4)ccc3ncc21` [NVP-BEZ235] was tested, and the normalised viability (Hs578T; 1000 nM) was 24.7%, the normalised viability (HCC1143 [1]; 1000 nM) was 30.1% and the normalised viability (MDA-MB-468; 1000 nM) was 28.1%. For the same molecule, the normalised viability (CAL-51 [2]; 10 nM) was 54.6%, the normalised viability (HCC1937 [3]; 1000 nM) was 45.5% and the normalised viability (SK-BR-3 [4]; 1000 nM) was 15.6%. The normalised viability (CAL-120; 1000 nM) was 14.4%, the normalised viability (MDA-MB-231 [5]; 1000 nM) was 27.1% and the normalised viability (DU-4475 [6]; 10 nM) was 107%. The normalised viability (CAL-85-1 [7]; 10 nM) was 68.6%, the normalised viability (BT-474; 1000 nM) was 41% and the normalised viability (HDQ-P1 [29]) was 69%. For the same molecule, the normalised viability (MFM-223 [8]; 1000 nM) was 24.1%, the normalised viability (MDA-MB-436; 1000 nM) was 63.2% and the normalised viability (BT-549 [9]; 1000 nM) was 18.2%. The normalised viability (HCC1599 [10]; 1000 nM) was 55.2%, the normalised viability (CAL-51 [11]; 100 nM) was 22.3% and the normalised viability (DU-4475 [12]; 100 nM) was 37.2%. For the same molecule, the normalised viability (CAL-85-1 [13]; 100 nM) was 31.4%, the normalised viability (CAL-148 [14]; 100 nM) was 16.1% and the normalised viability (HDQ-P1 [15]; 100 nM) was 38.3%. The normalised viability (MDA-MB-453 [16]; 100 nM) was 16.8%, the normalised viability (HCC1143 [17]; 1 nM) was 83.5% and the normalised viability (CAL-51 [18]; 0.3 nM) was 105%. It also gave a normalised viability (HCC1937 [19]; 1 nM) of 128%, a normalised viability (SK-BR-3 [20]; 1 nM) of 105% and a normalised viability (MDA-MB-231 [21]; 1 nM) of 97.4%. For the same molecule, the normalised viability (DU-4475 [22]; 0.3 nM) was 125%, the normalised viability (CAL-148 [23]; 0.3 nM) was 95.2% and the normalised viability (HDQ-P1 [24]; 0.3 nM) was 110%. For the same molecule, the normalised viability (MFM-223 [25]; 1 nM) was 99.1%, the normalised viability (BT-549 [26]; 1 nM) was 101% and the normalised viability (HCC1599 [27]; 1 nM) was 104%. It also gave a normalised viability (MDA-MB-453 [28]; 0.3 nM) of 110%.

Reference: the supplement of paper PMC4862054
